# Legend:
# Format in all cases: in vivo
# [1] = test system: Foxtail, Green; assay: Test A preemergence, directed soil spray, visual injury rating; settings: 0 is no effect, 100 is complete control
# [2] = test system: barnyardgrass (Echinochloa crus-galli); assay: as above; settings: 0 is no effect, 100 is complete control
# In short: (§1)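 Compounds in a surfactant-containing solvent were applied as a directed soil spray preemergence, or postemergence to plants 2-10 cm tall at the one- to two-leaf stage, in loam-sand blend. After about 10 d in the greenhouse, injury was rated visually against untreated controls on a 0-100 scale (100 = complete control).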
# [3] = test system: kochia (Kochia scoparia); assay: as above; settings: 0 is no effect, 100 is complete control
# In short: as §1
# [4] = test system: pigweed (Amaranthus retroflexus); assay: as above; settings: 0 is no effect, 100 is complete control
# In short: as §1
# [5] = test system: ragweed (common ragweed, Ambrosia elatior); assay: as above; settings: 0 is no effect, 100 is complete control
# In short: as §1
# [6] = test system: ryegrass, It. (Italian ryegrass, Lolium multiflorum); assay: as above; settings: 0 is no effect, 100 is complete control
# In short: as §1
# [7] = test system: barnyardgrass (Echinochloa crus-galli); assay: Test B flooded paddy test, visual rating; settings: Flood, 250 g ai/ha, applied to paddy water, rated after 13 to 15 d
# In short: (§2)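 Plants grown to the 2-leaf stage. At treatment, pots were flooded to 3 cm above the soil, compound was applied directly to the paddy water, and that depth was held throughout. After 13 to 15 d in the greenhouse, response was rated visually against controls on a 0 (no effect) to 100 (complete control) scale.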
# [8] = test system: ducksalad (Heteranthera limosa); assay: Test B flooded paddy test, visual rating; settings: Flood, 250 g ai/ha, applied to paddy water, rated after 13 to 15 d
# In short: as §2
# [9] = test system: rice (Oryza sativa); assay: Test B flooded paddy test, visual rating; settings: Flood, 250 g ai/ha, applied to paddy water, rated after 13 to 15 d
# In short: as §2
# [10] = test system: sedge, umbrella (small-flower umbrella sedge, Cyperus difformis); assay: Test B flooded paddy test, visual rating; settings: Flood, 250 g ai/ha, applied to paddy water, rated after 13 to 15 d
# In short: as §2
# [11] = test system: Foxtail, Green; assay: Test A postemergence application, visual injury rating; settings: 0 to 100 scale, 0 no effect, 100 complete control
# [12] = test system: barnyardgrass (Echinochloa crus-galli); assay: as above; settings: 0 to 100 scale, 0 no effect, 100 complete control
# In short: as §1
# [13] = test system: blackgrass (Alopecurus myosuroides); assay: as above; settings: 0 to 100 scale, 0 no effect, 100 complete control
# In short: as §1
# [14] = test system: corn (Zea mays); assay: as above; settings: for Corn plant response rating: 0 to 100 scale, 0 no effect, 100 complete control
# In short: as §1
# [15] = test system: galium (catchweed bedstraw, Galium aparine); assay: as above; settings: for Galium plant response rating: 0 to 100 scale, 0 no effect, 100 complete control
# In short: as §1
# [16] = test system: kochia (Kochia scoparia); assay: as above; settings: for Kochia plant response rating: 0 to 100 scale, 0 no effect, 100 complete control
# In short: as §1
# [17] = test system: pigweed (Amaranthus retroflexus); assay: as above; settings: for Pigweed plant response rating: 0 to 100 scale, 0 no effect, 100 complete control
# In short: as §1
# [18] = test system: ragweed (common ragweed, Ambrosia elatior); assay: as above; settings: for Ragweed plant response rating: 0 to 100 scale, 0 no effect, 100 complete control
# In short: as §1
# [19] = test system: ryegrass, It. (Italian ryegrass, Lolium multiflorum); assay: as above; settings: for Ryegrass, It. plant response rating: 0 to 100 scale, 0 no effect, 100 complete control
# In short: as §1
# [20] = test system: wheat (Triticum aestivum); assay: as above; settings: for Wheat plant response rating: 0 to 100 scale, 0 no effect, 100 complete control
# In short: as §1
# [21] = test system: foxtail, giant (giant foxtail, Setaria faberii); assay: Test A preemergence, directed soil spray, visual injury rating; settings: 0 is no effect, 100 is complete control
# In short: as §1
# [22] = test system: foxtail, giant (giant foxtail, Setaria faberii); assay: Test A postemergence application, visual injury rating
# In short: as §1
# [23] = 31 g ai/ha, 0 is no effect, 100 is complete control
Compound,"Plant response rating (0 to 100 scale), Barnyardgrass ([2]; 31 g ai/ha)","Plant response rating (0 to 100 scale), Barnyardgrass ([2]; 125 g ai/ha)","Plant response rating (0 to 100 scale), Kochia ([3]; 31 g ai/ha)","Plant response rating (0 to 100 scale), Kochia ([3]; 125 g ai/ha)","Plant response rating (0 to 100 scale), Pigweed ([4]; 31 g ai/ha)","Plant response rating (0 to 100 scale), Pigweed ([4]; 125 g ai/ha)","Plant response rating (0 to 100 scale), Ragweed ([5]; 31 g ai/ha)","Plant response rating (0 to 100 scale), Ragweed ([5]; 125 g ai/ha)","Plant response rating (0 to 100 scale), Ryegrass, It. ([6]; 31 g ai/ha)","Plant response rating (0 to 100 scale), Ryegrass, It. ([6]; 125 g ai/ha)","Barnyardgrass plant response rating (0 to 100 scale, 0 is no effect, 100 is complete control) [7]","Ducksalad plant response rating (0 to 100 scale, 0 is no effect, 100 is complete control) [8]","Rice plant response rating (0 to 100 scale, 0 is no effect, 100 is complete control) [9]","Sedge, Umbrella plant response rating (0 to 100 scale, 0 is no effect, 100 is complete control) [10]",Barnyardgrass plant response rating ([12]; 31 g ai/ha),Barnyardgrass plant response rating ([12]; 125 g ai/ha),Blackgrass plant response rating ([13]; 125 g ai/ha),Corn plant response rating ([14]; 125 g ai/ha),Galium plant response rating ([15]; 125 g ai/ha),Kochia plant response rating ([16]; 125 g ai/ha),further results
Cn1ncc(O)c(-c2cccc3cnccc23)c1=O [Compound 34],0,0,0,0,0,0,0,0,0,0,0,0,0,0,0,0,0,0,0,0,"Plant response rating (0 to 100 scale), Foxtail, Green ([1]; 31 g ai/ha): 0; Plant response rating (0 to 100 scale), Foxtail, Green ([1]; 125 g ai/ha): 0; Foxtail, Green plant response rating ([11]; 31 g ai/ha): 0; Foxtail, Green plant response rating ([11]; 125 g ai/ha): 0; Blackgrass plant response rating ([13]; 31 g ai/ha): 0; Corn plant response rating ([14]; 31 g ai/ha): 0; Galium plant response rating ([15]; 31 g ai/ha): 0; Kochia plant response rating ([16]; 31 g ai/ha): 0; Pigweed plant response rating ([17]; 31 g ai/ha): 0; Pigweed plant response rating ([17]; 125 g ai/ha): 0; Ragweed plant response rating ([18]; 31 g ai/ha): 0; Ragweed plant response rating ([18]; 125 g ai/ha): 0; Ryegrass, It. plant response rating ([19]; 31 g ai/ha): 0; Ryegrass, It. plant response rating ([19]; 125 g ai/ha): 0; Wheat plant response rating ([20]; 31 g ai/ha): 0; Wheat plant response rating ([20]; 125 g ai/ha): 0"
Cc1nn(C)c(=O)c(-c2ccc(Cl)c3ccsc23)c1OC(=O)c1ccccc1 [Compound 35],,,,,,,,,,,,,,,,,,,,,"Plant response rating (0 to 100 scale), Foxtail, Green ([1]; 1000 g ai/ha): 0; Plant response rating (0 to 100 scale), Barnyardgrass ([2]; 1000 g ai/ha): 20; Plant response rating (0 to 100 scale), Kochia ([3]; 1000 g ai/ha): 0; Plant response rating (0 to 100 scale), Pigweed ([4]; 1000 g ai/ha): 0; Plant response rating (0 to 100 scale), Ragweed ([5]; 1000 g ai/ha): 10; Plant response rating (0 to 100 scale), Ryegrass, It. ([6]; 1000 g ai/ha): 80; Foxtail, Green plant response rating ([11]; 1000 g ai/ha): 0; Barnyardgrass plant response rating ([12]; 1000 g ai/ha): 20; Blackgrass plant response rating ([13]; 1000 g ai/ha): 30; Corn plant response rating ([14]; 1000 g ai/ha): 0; Galium plant response rating ([15]; 1000 g ai/ha): 100; Kochia plant response rating ([16]; 1000 g ai/ha): 0; Pigweed plant response rating ([17]; 1000 g ai/ha): 0; Ragweed plant response rating ([18]; 1000 g ai/ha): 0; Ryegrass, It. plant response rating ([19]; 1000 g ai/ha): 70; Wheat plant response rating ([20]; 1000 g ai/ha): 0"
CCC(=O)Oc1c(C)nn(C)c(=O)c1-c1c(C(F)(F)F)ccc2cc(C)oc12 [Compound 47],0,30,40,50,60,100,20,80,0,80,0,0,0,0,0,10,0,0,80,70,"Plant response rating (0 to 100 scale), Foxtail, Green ([1]; 31 g ai/ha): 0; Plant response rating (0 to 100 scale), Foxtail, Green ([1]; 125 g ai/ha): 0; Foxtail, Green plant response rating ([11]; 31 g ai/ha): 0; Foxtail, Green plant response rating ([11]; 125 g ai/ha): 10; Corn plant response rating ([14]; 31 g ai/ha): 0; Galium plant response rating ([15]; 31 g ai/ha): 70; Kochia plant response rating ([16]; 31 g ai/ha): 40; Pigweed plant response rating ([17]; 31 g ai/ha): 90; Pigweed plant response rating ([17]; 125 g ai/ha): 90; Ragweed plant response rating ([18]; 31 g ai/ha): 40; Ragweed plant response rating ([18]; 125 g ai/ha): 80; Ryegrass, It. plant response rating ([19]; 31 g ai/ha): 0; Ryegrass, It. plant response rating ([19]; 125 g ai/ha): 30; Wheat plant response rating ([20]; 31 g ai/ha): 0; Wheat plant response rating ([20]; 125 g ai/ha): 0"
CC(=O)Oc1c(C)nn(C)c(=O)c1-c1c(C(F)(F)F)ccc2cc(C)oc12 [Compound 48],0,20,10,20,20,100,0,90,10,20,0,0,0,0,0,10,0,20,80,70,"Plant response rating (0 to 100 scale), Foxtail, Green ([1]; 31 g ai/ha): 0; Plant response rating (0 to 100 scale), Foxtail, Green ([1]; 125 g ai/ha): 20; Foxtail, Green plant response rating ([11]; 31 g ai/ha): 0; Foxtail, Green plant response rating ([11]; 125 g ai/ha): 10; Blackgrass plant response rating ([13]; 31 g ai/ha): 0; Corn plant response rating ([14]; 31 g ai/ha): 0; Galium plant response rating ([15]; 31 g ai/ha): 80; Kochia plant response rating ([16]; 31 g ai/ha): 50; Pigweed plant response rating ([17]; 31 g ai/ha): 70; Pigweed plant response rating ([17]; 125 g ai/ha): 100; Ragweed plant response rating ([18]; 31 g ai/ha): 70; Ragweed plant response rating ([18]; 125 g ai/ha): 90; Ryegrass, It. plant response rating ([19]; 31 g ai/ha): 0; Ryegrass, It. plant response rating ([19]; 125 g ai/ha): 30; Wheat plant response rating ([20]; 31 g ai/ha): 0; Wheat plant response rating ([20]; 125 g ai/ha): 0"
Cc1cc2c(-c3c(O)c(C)nn(C)c3=O)c(C)ccc2s1 [Compound 72],0,30,0,40,70,70,70,90,90,100,0,0,0,0,30,40,80,0,100,90,"Plant response rating (0 to 100 scale), Foxtail, Giant ([21]; 31 g ai/ha): 0; Plant response rating (0 to 100 scale), Foxtail, Giant ([21]; 125 g ai/ha): 40; Blackgrass plant response rating ([13]; 31 g ai/ha): 40; Plant response rating (0 to 100 scale), Corn [14, 23]: 0; Plant response rating (0 to 100 scale), Foxtail, Giant [22, 23]: 30; Foxtail, Giant plant response rating ([22]; 125 g ai/ha, 0 to 100 scale, 0 no effect, 100 complete control): 60; Plant response rating (0 to 100 scale), Galium [15, 23]: 90; Plant response rating (0 to 100 scale), Kochia [16, 23]: 70; Plant response rating (0 to 100 scale), Pigweed [17, 23]: 90; Pigweed plant response rating ([17]; 125 g ai/ha): 90; Plant response rating (0 to 100 scale), Ragweed [18, 23]: 70; Ragweed plant response rating ([18]; 125 g ai/ha): 90; Plant response rating (0 to 100 scale), Ryegrass, It. [19, 23]: 90; Ryegrass, It. plant response rating ([19]; 125 g ai/ha): 100; Plant response rating (0 to 100 scale), Wheat [20, 23]: 0; Wheat plant response rating ([20]; 125 g ai/ha): 0"

# Reference: patent US10750743B2, “Pyridazinone herbicides” (E.I. DU PONT DE NEMOURS AND COMPANY, priority 2015, dated 2020)
